The values that follow come from patent US9409922B2, “Imidazopyridine macrocycles as inhibitors of human immunodeficiency virus replication” (priority 2014, dated 2016).

The subject of the first assay is NL-RLuc virus. Nature of the assay: Inhibition of HIV replication: NL-RLuc reporter virus in MT-2 cells, luciferase readout. It is filed as cell-based. The conditions noted are these: Human immunodeficiency virus 1, MT2, 120 h, MT-2 cells infected with NL-RLuc virus, 5 days of incubation, 10% FBS, at least 2 experiments. In a few lines:
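Renilla luciferase reporter virus (NL4-3 nef replaced), produced in 293T cells, infected MT-2 cells with serial compound dilutions for 5 days in RPMI 1640 with 10% FBS, 10 mM HEPES pH 7.55. Luciferase measured; EC50 from median effect equation, at least 2 experiments.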
In turn, `Cc1cc2nc3cn2c(c1[C@H](OC(C)(C)C)C(=O)O)N1CCC(C)(CC1)OCCCC[C@H](C)Oc1c(F)cccc1-c1cccc-3c1` [Example 35, (2S)-2-(tert-Butoxy)-2-[(22S)-19-fluoro-4,22,28-trimethyl-21,27-dioxa-1,7,34-triazahexacyclo[26.2.2.1^6,^9.1^10,^14.0^2,^7.0^15,^20]tetratriaconta-2,4,6(34),8,10(33),11,13,15(20),16,18-decaen-3-yl]acetic acid] registered an EC50 of 7 nM.
In turn, `Cc1cc2nc3cn2c(c1[C@H](OC(C)(C)C)C(=O)O)N1CCC(C)(CC1)OCCCC[C@H](C)Oc1cc(F)ccc1-c1cccc-3c1` [Example 7, (2S)-2-(tert-Butoxy)-2-[(22S)-4,17,22,28-tetramethyl-21,27-dioxa-1,7,34-triazahexacyclo[26.2.2.1^6,^9.1^10,^14.0^2,^7.0^15,^20]tetratriaconta-2,4,6(34),8,10(33),11,13,15(20),16,18-decaen-3-yl]acetic acid] registered an EC50 of 5 nM.
The same measure, in the same setting: in the case of `Cc1cc2nc3cn2c(c1[C@H](OC(C)(C)C)C(=O)O)N1CCC(C)(CC1)OCCCC[C@H](C)Oc1ccc(F)cc1-c1cccc-3c1` [Example 10, (2S)-2-(tert-Butoxy)-2-[(22S)-17-fluoro-4,22,28-trimethyl-21,27-dioxa-1,7,34-triazahexacyclo[26.2.2.1^6,^9.1^10,^14.0^2,^7.0^15,^20]tetratriaconta-2,4,6(34),8,10(33),11,13,15(20),16,18-decaen-3-yl]acetic acid] it was 4 nM; in that of `Cc1ccc2c(c1)-c1cccc(c1)-c1nc3cc(C)c([C@H](OC(C)(C)C)C(=O)O)c(n3c1Cl)N1CCC(C)(CC1)OCCCC[C@H](C)O2` [Example 22, (2S)-2-(tert-Butoxy)-2-[(22S)-8-chloro-4,17,22,28-tetramethyl-21,27-dioxa-1,7,34-triazahexacyclo[26.2.2.1^6,^9.1^10,^14.0^2,^7.0^15,^20]tetratriaconta-2,4,6(34),8,10(33),11,13,15(20),16,18-decaen-3-yl]acetic acid], 24 nM.
Regarding `Cc1c([C@H](OC(C)(C)C)C(=O)O)c2n3cc(nc3c1C)-c1cccc(c1)-c1cc(OC(F)(F)F)ccc1O[C@@H](C)CCCCOC1(C)CCN2CC1` [Example 42, (2S)-2-(tert-Butoxy)-2-[(22S)-4,5,22,28-tetramethyl-17-(trifluoromethoxy)-21,27-dioxa-1,7,34-triazahexacyclo[26.2.2.1^6,^9.1^10,^14.0^2,^7.0^15,^20]tetratriaconta-2,4,6(34),8,10(33),11,13,15(20),16,18-decaen-3-yl]acetic acid], the EC50 was 60 nM.
For the compound `C=C(C)c1c(C)c([C@H](OC(C)(C)C)C(=O)O)c2n3cc(nc13)-c1cccc(c1)-c1cc(F)ccc1O[C@@H](C)CCCCOC1(C)CCN2CC1` [Example 48, (2S)-2-(tert-Butoxy)-2-[(22S)-17-fluoro-4,22,28-trimethyl-5-(prop-1-en-2-yl)-21,27-dioxa-1,7,34-triazahexacyclo[26.2.2.1^6,^9.1^10,^14.0^2,^7.0^15,^20]tetratriaconta-2,4,6(34),8,10(33),11,13,15(20),16,18-decaen-3-yl]acetic acid], the response was half-maximal at 24 nM (EC50).
Still for that read-out and setting: in the case of `Cc1cc2nc3c(F)n2c(c1[C@H](OC(C)(C)C)C(=O)O)N1CCC(C)(CC1)OCCCC[C@H](C)Oc1cc(F)c(F)cc1-c1cccc-3c1` [Example 26, (2S)-2-(tert-Butoxy)-2-[(22S)-8,17,18-trifluoro-4,22,28-trimethyl-21,27-dioxa-1,7,34-triazahexacyclo[26.2.2.1^6,^9.1^10,^14.0^2,^7.0^15,^20]tetratriaconta-2,4,6(34),8,10(33),11,13,15(20),16,18-decaen-3-yl]acetic acid] it was 26 nM; in that of `Cc1ccc2c(c1)-c1cccc(c1)-c1cn3c(c([C@H](OC(C)(C)C)C(=O)O)c(C)cc3n1)N1CCC(C)(CC1)OCCCC[C@H](C)O2` [Example 8, (2S)-2-(tert-Butoxy)-2-[(22S)-4,17,22,28-tetramethyl-21,27-dioxa-1,7,34-triazahexacyclo[26.2.2.1^6,^9.1^10,^14.0^2,^7.0^15,^20]tetratriaconta-2,4,6(34),8,10(33),11,13,15(20),16,18-decaen-3-yl]acetic acid], 15 nM.

Still in this assay, the particulars now being: MT-2 cells infected with NL-RLuc virus, 5 days of incubation, 10% FBS, at least 2 experiments.
With `Cc1cc2c(cc1F)-c1cccc(c1)-c1nc3cc(C)c([C@H](OC(C)(C)C)C(=O)O)c(n3c1Br)N1CCC(C)(CC1)OCCCC[C@H](C)O2` [Example 28, (2S)-2-[(22S)-8-Bromo-17-fluoro-4,18,22,28-tetramethyl-21,27-dioxa-1,7,34-triazahexacyclo[26.2.2.1^6,^9.1^10,^14.0^2,^7.0^15,^20]tetratriaconta-2,4,6(34),8,10(33),11,13,15(20),16,18-decaen-3-yl]-2-(tert-butoxy)acetic acid], it took 8 nM to reach a half-maximal effect (EC50).
